From patent US11040087B2, “Therapeutic agent for diseases associated with abnormalities in dystroglycan sugar chain modification and method for assaying associated enzyme” (NATIONAL UNIVERSITY CORPORATION KOBE UNIVERSITY, priority 2016, dated 2021) come the findings set out here.

Test [1] deals with ISPD-deficient HAP1 cells. To be noted: ISPD-deficient (KO) HAP1 cells; CDP-ribitol added to culture medium at final concentration 1 mM; culture 24 hours; western blot. The protocol:
(§1) In this Example, for HAP1 cells and HEK cells, cells deficient in ISPD were generated using a CRISPR/CAS9 genome editing method. The HAP1 cells are a haploid cell line derived from cultured human leukemia cells (KBM7), and are cells capable of being subjected to genome editing with high efficiency.
(§2) The deficiency mutation of the ISPD-deficient cells was confirmed by DNA sequencing. To each culture medium, CDP-ribitol was added at a final concentration of 1 mM, followed by culture for 24 hours. After the culture, cell endogenous dystroglycan was prepared from a cell extract, and the state of glycosylation was confirmed by a western blot method.

The test system of test [2] is ISPD-deficient HEK cells. To be noted: ISPD-deficient (KO) HEK cells; CDP-ribitol 1 mM administered simultaneously with cell transfection reagent (lipofectamine); culture 24 hours; western blot. The protocol:
as §1, §2
For orientation: In western blotting, separated proteins are transferred to a membrane and probed.

Turning to “cytidine diphosphate ribitol [CDP-ribitol]”, the entries for the “state of glycosylation of cell endogenous dystroglycan (α-DG)” value in test [1] and in test [2] were “caused glycosylation of α-DG similar to that in the normal cells” and “the restoration of the glycan was confirmed”, respectively.
